Assay results published in patent US20240139347A1, “COMPLEX, VASCULAR CONTRAST AGENT, X-RAY CONTRAST AGENT, METHOD FOR PRODUCING COMPLEX, AND IMAGING METHOD FOR CAPTURING STRUCTURAL CHANGE IN VESSEL” (TOHOKU UNIVERSITY, priority 2021, published 2024).

Assay: in vivo
Conditions: BALB/c, mouse, iv
From the text: The complex disclosed in the present application is preferably retained in the blood until completion of X-ray CT imaging after administration and is preferably excreted by the kidneys by the time of the next X-ray CT imaging. […] As a matter of course, the half-life in blood may be shorter or longer than the above half-life in blood in the case of imaging a temporary structure instead of imaging structural change over time or using a typical X-ray CT imaging device. The half-life in blood can be adjusted by changing the type of protein or the size of the complex. The “half-life in blood” means the time it takes for the X-ray CT value of the complex to decrease by half from the maximum value after administration in vivo. However, the shortest time at which X-ray CT imaging can be started after administration of a contrast agent is about 5 minutes, and thus the measurement value at the time when X-ray CT imaging is started 5 minutes after administration of the contrast agent is defined as the “maximum value after administration in vivo” in the present specification.
Imaging was performed using a micro X-ray CT device (SkyScan1176, Bruker) under conditions of a tube voltage of 50 kV, a tube current of 500 μA, and 35 μm/voxel, 18 μm/voxel, or 9 μm/voxel. The contrast agents synthesized in Example 1 and Comparative Examples 1 and 2 were imaged in vitro. In vivo, 200 μL of each contrast agent was injected into an anesthetized mouse from the tail vein, and CT imaging was performed once or twice. Slice images were acquired using CTAn (Bruker), and volume rendered images were acquired using CTVOX. CT values were calculated by defining the value of Hounsfield Units (HU) as −1000 for air and 0 for water.
The image before the administration of the contrast agent was taken as 0 min (before injection).
FIGS. 16 and 17 show CT images of mouse hearts before and after intravenous administrations of the contrast agents. […] In addition, in FIGS. 16 and 17, the dotted line circles indicate the contour of the hearts, and the tips of the arrows (white and black) indicate the positions of the septa of the hearts.
FIG. 18 is a graph showing results of measuring changes in CT values of ventricles over time.

CT value of ventricles: 72 HU | half-life: < 1 h | CT value of ventricles (5 min): 291 HU | CT value of ventricles (60 min): 130 HU | CT value of ventricles (180 min): 75 HU | CT value of ventricles (360 min): 87 HU | CT value of ventricles (24 h): 72 HU
SMILES: C[C@H](O)C(=O)Nc1c(I)c(C(=O)NC(CO)CO)c(I)c(C(=O)NC(CO)CO)c1I [iopamidol, Iopamidol]
